SMILES strings stand for the structures. “And” between values parts separate entries of the source, which are not always exact repeats. Equal values may be shown once. Toxic doses and inconclusive results are not listed. Residues, ends and D or L forms follow the SMILES beside them. *: point of attachment. Trt = c1ccc(C(c2ccccc2)(c2ccccc2)*)cc1; Cbz = O=C(OCc1ccccc1)*; Bn = c1ccc(C*)cc1; βAla = NCCC(=O)O

The test system of this assay is B6C3F1 mice, Lewis lung carcinoma iv, survival T/C. Nature of the assay: NCI In Vivo Anticancer Drug Screen. Data for tumor model Lewis Lung Carcinoma (intravenous) in B6C3F1 mice. Particulars: endpoint: median survival time, higher = longer survival. In outline:
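Mice carrying transplanted tumors received test compound; survival in the treated group was divided by that of the vehicle-treated control group to give the T/C value.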

The mark [1] stands for this setting: dose: 6.25 mg/kg/injection, schedule: Q01DX009 (ip), vehicle: Klucel (hydroxypropylcellulose) (HPC).
Where [2] appears, read: dose: 12.5 mg/kg/injection, schedule: Q01DX009 (ip), vehicle: Klucel (hydroxypropylcellulose) (HPC).
The mark [3] stands for this setting: dose: 25.0 mg/kg/injection, schedule: Q01DX009 (ip), vehicle: Klucel (hydroxypropylcellulose) (HPC).
Where [4] appears, read: dose: 50.0 mg/kg/injection, schedule: Q01DX009 (ip), vehicle: Klucel (hydroxypropylcellulose) (HPC).
Setting [5] is: dose: 6.25 mg/kg/injection, schedule: Q01DX009 (ip), vehicle: saline.
The mark [6] stands for this setting: dose: 100.0 mg/kg/injection, schedule: Q01DX009 (ip), vehicle: Klucel (hydroxypropylcellulose) (HPC).
[7] abbreviates: dose: 25.0 mg/kg/injection, schedule: Q01DX009 (ip), vehicle: saline with Tween-80.
The mark [8] stands for this setting: dose: 50.0 mg/kg/injection, schedule: Q01DX009 (ip), vehicle: saline with Tween-80.
Setting [9] is: dose: 100.0 mg/kg/injection, schedule: Q01DX009 (ip), vehicle: saline with Tween-80.
[10] abbreviates: dose: 200.0 mg/kg/injection, schedule: Q01DX009 (ip), vehicle: saline with Tween-80.
Where [11] appears, read: dose: 12.5 mg/kg/injection, schedule: Q01DX009 (ip), vehicle: saline with Tween-80.
[12] abbreviates: dose: 6.25 mg/kg/injection, schedule: Q01DX009 (ip), vehicle: saline with Tween-80.
Setting [13] is: dose: 200.0 mg/kg/injection, schedule: Q01DX009 (ip), vehicle: Klucel (hydroxypropylcellulose) (HPC).

`Cc1c(N)nc([C@H](CC(N)=O)NC[C@H](N)C(N)=O)nc1C(=O)N[C@H](C(=O)N[C@H](C)[C@@H](O)CC(=O)N[C@H](C(=O)NC(O[C@@H]1O[C@@H](C)[C@@H](N)[C@@H](O)[C@H]1O)C(O)c1nc(-c2nc(C(=O)NCCCCN)cs2)cs1)[C@@H](C)O)[C@@H](O[C@@H]1O[C@@H](CO)[C@@H](O)[C@H](O)[C@@H]1O[C@H]1O[C@H](CO)[C@@H](O)[C@H](OC(N)=O)[C@@H]1O)c1c[nH]cn1` (some centres undefined): the T/C is, setting by setting: (dose: 2.0 mg/kg/injection, schedule: Q01DX009 (ip), vehicle: saline) 123 % of control; (dose: 8.0 mg/kg/injection, schedule: Q01DX009 (ip), vehicle: saline) 176 % of control.

For `COc1ccc(Cl)[n+]([O-])n1`, the T/C (dose: 0.39 mg/kg/injection, schedule: Q01DX009 (ip), vehicle: Klucel (hydroxypropylcellulose) (HPC)) was 98 % of control; the T/C (dose: 0.78 mg/kg/injection, schedule: Q01DX009 (ip), vehicle: Klucel (hydroxypropylcellulose) (HPC)) is 91 % of control; the T/C (dose: 1.56 mg/kg/injection, schedule: Q01DX009 (ip), vehicle: Klucel (hydroxypropylcellulose) (HPC)) was 103 % of control; the T/C (dose: 3.12 mg/kg/injection, schedule: Q01DX009 (ip), vehicle: Klucel (hydroxypropylcellulose) (HPC)) is 96 % of control; the T/C under setting [1] was 100 % of control and 88 % of control; the T/C under setting [2] was 99 % of control and 105 % of control. The T/C by setting is: under setting [3], 107 % of control; under setting [4], 112 % of control.

For `COc1cccc2c1C(=O)c1c(O)c3c(c(O)c1C2=O)C[C@@](O)(/C(C)=N\NC(=O)CO)C[C@@H]3OC1CC(N)C(O)C(C)O1` (some centres undefined), the T/C under setting [5] was 87 % of control.

As for `CNC(=O)c1cccc2c(Nc3ccc(NS(C)(=O)=O)cc3OC)c3cccc(C)c3nc12`, the T/C (dose: 3.0 mg/kg/injection, schedule: Q04DX003 (ip), vehicle: saline + alcohol) was 114 % of control; the T/C (dose: 3.12 mg/kg/injection, schedule: Q04DX003 (ip), vehicle: saline + alcohol) is 118 % of control; the T/C (dose: 6.0 mg/kg/injection, schedule: Q04DX003 (ip), vehicle: saline + alcohol) is 156 % of control; the T/C (dose: 12.5 mg/kg/injection, schedule: Q04DX003 (ip), vehicle: saline + alcohol) was 181 % of control and 309 % of control (2×); the T/C (dose: 12.5 mg/kg/injection, schedule: Q04DX003 (ip), vehicle: water) is 178 % of control; the T/C (dose: 25.0 mg/kg/injection, schedule: Q04DX003 (ip), vehicle: water) is 260 % of control.

On to `CC(=O)N(C)c1ccc(Nc2cc(C)[nH]c3ccc4ncnc4c23)cc1`, for which the T/C is 100 % of control under setting [5]; 100 % of control (dose: 12.5 mg/kg/injection, schedule: Q01DX009 (ip), vehicle: saline); 105 % of control (dose: 25.0 mg/kg/injection, schedule: Q01DX009 (ip), vehicle: saline); 102 % of control (dose: 50.0 mg/kg/injection, schedule: Q01DX009 (ip), vehicle: saline).

In the case of `C1CC[N-]CC1.[Cl][Pt+2][Cl].[NH-]C1CC1`, the T/C is 106 % of control (dose: 1.56 mg/kg/injection, schedule: Q01DX009 (ip), vehicle: water); 110 % of control (dose: 3.12 mg/kg/injection, schedule: Q01DX009 (ip), vehicle: water); 107 % of control and 109 % of control (dose: 6.25 mg/kg/injection, schedule: Q01DX009 (ip), vehicle: water); 102 % of control and 120 % of control (dose: 12.5 mg/kg/injection, schedule: Q01DX009 (ip), vehicle: water).

Regarding `Nc1ncnc2c1nnn2C1OC(CO)C(O)C1O` (centres undefined), the T/C was 110 % of control under setting [2], 103 % of control under setting [3] and 105 % of control under setting [4].

As to `COc1ccc2[nH]c3c(c2c1)CCNC3CC(C)CCC=C(C)C` (centres undefined), the T/C under setting [1] was 98 % of control; the T/C under setting [2] is 98 % of control; the T/C under setting [3] is 92 % of control; the T/C under setting [4] was 103 % of control; the T/C under setting [6] is 105 % of control.

`CN=C(N)N/N=C(\C)c1ccc2c(c1)Cc1cc(/C(C)=N/NC(N)=NC)ccc1-2`: the T/C by setting is: (dose: 0.37 mg/kg/injection, schedule: Q01DX009 (ip), vehicle: saline with Tween-80) 95 % of control; (dose: 0.75 mg/kg/injection, schedule: Q01DX009 (ip), vehicle: saline with Tween-80) 97 % of control; (dose: 1.5 mg/kg/injection, schedule: Q01DX009 (ip), vehicle: saline with Tween-80) 94 % of control; (dose: 3.0 mg/kg/injection, schedule: Q01DX009 (ip), vehicle: saline with Tween-80) 100 % of control.

`N=c1c(C(=O)OCc2ccccc2)ncc(CCl)n1O`: the T/C was 96 % of control under setting [7], 97 % of control under setting [8], 109 % of control under setting [9] and 92 % of control under setting [10].

Regarding `O=CCC(O)C(O)C(O)CO` (centres undefined), the T/C was 102 % of control (dose: 300.0 mg/kg/injection, schedule: Q01DX009 (ip), vehicle: suspension in saline); 108 % of control (dose: 600.0 mg/kg/injection, schedule: Q01DX009 (ip), vehicle: suspension in saline); 114 % of control (dose: 1200.0 mg/kg/injection, schedule: Q01DX009 (ip), vehicle: suspension in saline); 117 % of control (dose: 1800.0 mg/kg/injection, schedule: Q01DX009 (ip), vehicle: suspension in saline); 106 % of control (dose: 2400.0 mg/kg/injection, schedule: Q01DX009 (ip), vehicle: suspension in saline).

Consider `CC(C#N)(C#N)N=Nc1ccc(Cl)cc1Cl`, for which the T/C reads like this: under setting [11], 98 % of control; under setting [7], 104 % of control; under setting [8], 109 % of control; under setting [9], 110 % of control; under setting [10], 106 % of control; (dose: 400.0 mg/kg/injection, schedule: Q01DX009 (ip), vehicle: saline with Tween-80) 104 % of control.

In the case of `CNC=O`, the T/C (dose: 100.0 mg/kg/injection, schedule: Q01DX009 (ip), vehicle: saline) is 106 % of control and the T/C (dose: 200.0 mg/kg/injection, schedule: Q01DX009 (ip), vehicle: saline) is 110 % of control.

On to `O=S(=O)(CCl)OCCCl`, for which the T/C by setting is: under setting [12], 103 % of control and 86 % of control; under setting [11], 100 % of control and 111 % of control; under setting [7], 99 % of control and 101 % of control and 109 % of control; under setting [8], 104 % of control and 114 % of control and 88 % of control; under setting [9], 118 % of control and 258 % of control.

`O=[N+]([O-])c1ccc(N2CCOCC2)c2c1no[n+]2[O-]`: the T/C was 118 % of control under setting [12]; 102 % of control under setting [11]; 111 % of control under setting [7]; 111 % of control under setting [8]; 98 % of control under setting [9].

As for `C[C@]12CCC(=O)C=C1CC[C@@H]1[C@@H]2[C@@H](O)C[C@@]2(C)[C@H]1CC[C@]2(O)C(=O)CO`, the T/C is, setting by setting: under setting [2], 110 % of control; under setting [3], 107 % of control; under setting [4], 97 % of control; under setting [6], 106 % of control; under setting [13], 100 % of control.

On to `COc1ccc(S(=O)(=O)N=N/C=C2\C=CC=CN2O)cc1OC`, for which the T/C is 92 % of control (dose: 3.12 mg/kg/injection, schedule: Q01DX009 (ip), vehicle: saline with Tween-80); 100 % of control under setting [12]; 98 % of control under setting [11]; 93 % of control under setting [7]; 106 % of control under setting [8].

Consider `COC(=O)C(CSC(c1ccccc1)(c1ccccc1)c1ccccc1)NC(=O)C(CSCc1ccccc1)NC(=O)CCNC(=O)OCc1ccccc1` (centres undefined) ({Cbz-βAla}-Cys(Bn)-Cys(Trt)-OMe; configuration not given here), for which the T/C runs as follows: under setting [4], 93 % of control; under setting [6], 98 % of control; under setting [13], 97 % of control; (dose: 400.0 mg/kg/injection, schedule: Q01DX009 (ip), vehicle: Klucel (hydroxypropylcellulose) (HPC)) 100 % of control; (dose: 800.0 mg/kg/injection, schedule: Q01DX009 (ip), vehicle: Klucel (hydroxypropylcellulose) (HPC)) 98 % of control.

The record behind these values is PubChem BioAssay AID276 (DTP/NCI, 2004).
